{
  "source": "patent US11793845B2",
  "about": "“Composition for ameliorating peripheral sensory neuropathy” (KINKI UNIVERSITY, priority 2016, dated 2023)",
  "key": {"[1]": {"test_system": "Peripheral Sensory Neuropathy Induced by Paclitaxel in Mice", "assay": "von Frey test, paclitaxel-induced peripheral sensory neuropathy", "format": "in vivo", "conditions": "duloxetine 30 mg/kg daily", "from_the_text": "The mice in the three groups in the above (1) were put in a cage and a filament having a strength of 0.16 g was pressed on the plantar surface of the leg to measure the number of times (a score) of avoidance response.\nMale Balb/c mice of 6 to 7 weeks old were used as in Example 1. The mice were divided into three groups: a control group, a paclitaxel administration group, and a paclitaxel and Lentinus edodes mycelium extract administration group (paclitaxel+Lentinus edodes mycelium extract administration group). Paclitaxel was administered to each mouse once a day at a dose of 6 mg/kg. Further, the Lentinus edodes mycelium extract was administered to each mouse once a day at a dose of 2 g/kg.\nFurther, the number of times of administration was set to once a week (on Day 0, Day 7, and Day 14) for paclitaxel and daily (from Day 0 to Day 15) for the Lentinus edodes mycelium extract in both the von Frey test and the cold plate test below.\nEvaluation was performed in the same manner as in the test with oxaliplatin. Referring to FIG. 3, the horizontal axis indicates an elapsed time after administration (days) and the vertical axis indicates the avoidance response (scores). Open circles with a solid line represent the control group. Filled circles with a solid line represent the group in which only paclitaxel was administered. Open squares with a dash line represent the group in which paclitaxel and the Lentinus edodes mycelium extract were administered (paclitaxel+Lentinus edodes mycelium extract administration group). When the difference with the control group was determined to be significant using a significance level of 5%, the data were marked by “*”.\n(§1) In the present test, the mice were divided into six groups by a difference in test objects. As in Example 1, male Balb/c mice of 6 to 7 weeks old were used. […]"}, "[2]": {"test_system": "Peripheral Sensory Neuropathy Induced by Vincristine in Mice", "assay": "cold plate test, vincristine-induced peripheral sensory neuropathy", "format": "in vivo", "conditions": "duloxetine 30 mg/kg daily", "experimental": "The effect of the Lentinus edodes mycelium extract on the paresthesia to cold stimulation was tested by performing the cold plate test. The mice in the three groups in the above (1) were put on a cold plate set to 10° C. and a response time for avoidance (a latency) was measured. The shorter latency means that the mouse avoids the cold stimulation of the cold plate more.\nIn the present test, the mice were divided into three groups by a difference in test objects. As in Example 1, male Balb/c mice of 6 to 7 weeks old were used. The mice were divided into a total of three groups, a control group, a vincristine\nadministration group, and a vincristine and Lentinus edodes mycelium extract administration group (vincristine+Lentinus edodes mycelium extract administration group).\nVincristine was administered to each mouse once a day at a dose of 0.2 mg/kg. Further, the Lentinus edodes mycelium extract was administered to each mouse once a day at a dose of 2 g/kg.\nEvaluation was performed in the same manner as in the test with oxaliplatin in Example 1. Referring to FIG. 6, the horizontal axis indicates the elapsed time after administration (days) and the vertical axis indicates the avoidance response time (seconds). Open circles with a solid line represent the control group. Filled circles with a solid line represent the group in which only vincristine was administered. Open squares with a dash line represent the group in which vincristine and the Lentinus edodes mycelium extract were administered at the same time (vincristine+Lentinus edodes mycelium extract administration group). When the difference with the control group was determined to be significant using a significance level of 5%, the data were marked by “*”.\nas §1"}},
  "data": [
    {"smiles": "CNCC[C@H](Oc1cccc2ccccc12)c1cccs1", "note": "[duloxetine]", "values": [
      {"measurement": "avoidance score compared with paclitaxel administration group, von Frey test", "setting": "[1]; 3-day delayed after paclitaxel", "result": "almost the same avoidance score as that in the paclitaxel administration group"},
      {"measurement": "avoidance score, von Frey test", "setting": "[1]; 6-day delayed after paclitaxel", "result": "same tendency as that in the duloxetine 3-day delayed administration group"},
      {"measurement": "latency compared with vincristine administration group, cold plate test", "setting": "[2]; 3-day delayed after vincristine", "result": "almost the same as that in the vincristine administration group"},
      {"measurement": "latency, cold plate test", "setting": "[2]; 6-day delayed after vincristine", "result": "same tendency as that in the duloxetine 3-day delayed administration group"}
    ]}
  ]
}
